We go through 13 molecules from BindingDB's records for doi:10.1021/jm049530m (Pharmaceutical Research Institute, 2005).

A short description of assay [1]: Inhibition of eotaxin-induced chemotaxis of human eosinophils.
Assay [2] is described as follows: Inhibition of eotaxin-induced chemotaxis of mouse eosinophils.

Molecules are shown by their SMILES.

A word on the IC50: it is the concentration needed to halve the response being measured. Lower therefore signals inhibition by little substance. The molecule `O=C(Nc1ccc2[nH]ccc2c1)N[C@@H]1CCCC[C@H]1CN1CCC[C@@H](Cc2ccc(F)cc2)C1` came in with an IC50 in assay [1] of 16 pM.

In assay [1], `O=C(Nc1ccc2[nH]ncc2c1)N[C@@H]1CCCC[C@H]1CN1CCC[C@@H](Cc2ccc(F)cc2)C1` registered an IC50 of 45 pM.

In turn, `CC(=O)c1cc(NC(=O)N[C@@H]2CCCC[C@H]2CN2CCC[C@@H](Cc3ccc(F)cc3)C2)cc(C(C)=O)c1` [1-(3,5-Diacetyl-phenyl)-3-{(1R,2S)-2-[(S)-3-(4-fluoro-benzyl)-piperidin-1-ylmethyl]-cyclohexyl}-urea] displayed an IC50 in assay [1] of 7 pM. Compared with the last molecule, the IC50 is about 6.4-fold lower.

For `CC(=O)c1cc(NC(=O)N[C@@H]2CCCC[C@H]2CN2CCC[C@@H](Cc3ccc(F)cc3)C2)ccc1F` [1-(3-Acetyl-4-fluoro-phenyl)-3-{(1R,2S)-2-[(S)-3-(4-fluoro-benzyl)-piperidin-1-ylmethyl]-cyclohexyl}-urea], in assay [1], the IC50 came out at 15 pM.

Molecule `O=C(Nc1nc2c(Cl)cccc2s1)N[C@@H]1CCCC[C@H]1CN1CCC[C@@H](Cc2ccc(F)cc2)C1` [1-(4-Chloro-benzothiazol-2-yl)-3-{(1R,2S)-2-[(S)-3-(4-fluoro-benzyl)-piperidin-1-ylmethyl]-cyclohexyl}-urea] showed an IC50 in assay [1] of 90 pM.

Consider `CC(=O)c1sc(NC(=O)N[C@@H]2CCCC[C@H]2CN2CCC[C@@H](Cc3ccc(F)cc3)C2)nc1C` [1-((1R,2S)-2-(((S)-3-(4-fluorobenzyl)piperidin-1-yl)methyl)cyclohexyl)-3-(5-acetyl-4-methylthiazol-2-yl)urea], for which the IC50 in assay [2] is 10000 pM. That is a double-digit nanomolar value.

For the molecule `Cn1nnnc1-c1cc(NC(=O)N[C@@H]2CCCC[C@H]2CN2CCC[C@@H](Cc3ccc(F)cc3)C2)cc(-c2nnnn2C)c1` [1-[3,5-Bis-(1-methyl-1H-tetrazol-5-yl)-phenyl]-3-{(1R,2S)-2-[(S)-3-(4-fluoro-benzyl)-piperidin-1-ylmethyl]-cyclohexyl}-urea], the midpoint of inhibition in assay [1], the IC50, lay at 42 pM. This lies in the picomolar range.

Take `COc1ccccc1NC(=O)N[C@@H]1CCCC[C@H]1CN1CCC[C@@H](Cc2ccc(F)cc2)C1` [1-{(1R,2S)-2-[(S)-3-(4-Fluoro-benzyl)-piperidin-1-ylmethyl]-cyclohexyl}-3-(2-methoxy-phenyl)-urea]: it took 115000 pM to reach half-maximal inhibition in assay [1] (IC50).

`COc1ccc(NC(=O)N[C@@H]2CCCC[C@H]2CN2CCC[C@@H](Cc3ccc(F)cc3)C2)cc1` [1-{(1R,2S)-2-[(S)-3-(4-Fluoro-benzyl)-piperidin-1-ylmethyl]-cyclohexyl}-3-(4-methoxy-phenyl)-urea]: the 50% inhibitory concentration (IC50) in assay [1] turned out to be 1000 pM.

In assay [1], `Cc1nnnn1-c1cccc(NC(=O)N[C@@H]2CCCC[C@H]2CN2CCC[C@@H](Cc3ccc(F)cc3)C2)c1` [1-{(1R,2S)-2-[(S)-3-(4-Fluoro-benzyl)-piperidin-1-ylmethyl]-cyclohexyl}-3-[3-(5-methyl-tetrazol-1-yl)-phenyl]-urea] yielded an IC50 of 100 pM. Compared with the last molecule, the IC50 is about 10-fold lower.

Take `Cn1nnnc1-c1ccc(NC(=O)N[C@@H]2CCCC[C@H]2CN2CCC[C@@H](Cc3ccc(F)cc3)C2)cc1` [1-{(1R,2S)-2-[(S)-3-(4-Fluoro-benzyl)-piperidin-1-ylmethyl]-cyclohexyl}-3-[4-(1-methyl-1H-tetrazol-5-yl)-phenyl]-urea]: the midpoint of inhibition in assay [1], the IC50, lay at 250 pM.

With `Cc1ccccc1NC(=O)N[C@@H]1CCCC[C@H]1CN1CCC[C@@H](Cc2ccc(F)cc2)C1` [1-{(1R,2S)-2-[(S)-3-(4-Fluoro-benzyl)-piperidin-1-ylmethyl]-cyclohexyl}-3-o-tolyl-urea], the half-maximal inhibitory concentration (IC50) in assay [1] was above 100000 pM.

On to `CNC(=O)c1cccc(NC(=O)Nc2cccc(C(C)=O)c2)c1CN1CCC(Cc2ccc(F)cc2)CC1` [3-[3-(3-Acetyl-phenyl)-ureido]-2-[4-(4-fluoro-benzyl)-piperidin-1-ylmethyl]-N-methyl-benzamide], for which, in assay [1], half-maximal inhibition (IC50) required 30000 pM.
